Results as given in the Deep4Chem optical property database.

Assay: solvent given as SMILES

Which absorption maximum (in CCCCCC) does the source give for CC(C)(C)c1ccc2ccc3cccc4ccc1c2c34 here?
The absorption maximum was 338 nm.

And the absorption maximum (in CO)?
Its absorption maximum is 338 nm.

What about the absorption maximum (in ClCCl) of the same compound?
Its absorption maximum is 341 nm.

For Cc1cccc(C2=Cc3c4ccccc4cc[n+]3[B-](F)(F)O2)c1, which absorption maximum (in ClC(Cl)Cl) is on record?
Its absorption maximum is 401.5 nm.

Which absorption maximum (in ClCCl) does the source give for COc1ccc2cc(C#N)c(=N)oc2c1 here?
Its absorption maximum is 358 nm.

Which absorption maximum (in CCO) does the source give for C=C(C)C(CN1C(=O)c2cccc3cccc(c23)C1=O)OO (stereo not given) here?
The absorption maximum was 332 nm.

With CC(C)(C)c1cccc2c1oc1nc3oc4ccc(-n5c6ccccc6c6ccccc65)cc4c3cc12 as the compound, how does the absorption maximum (in ClC(Cl)Cl) read?
Its absorption maximum is 348 nm.

What does the source list for O=c1c(Nc2ccccc2)c([O-])c1=[NH+]c1ccccc1?
absorption maximum (in C1CCOC1): 401 nm; absorption maximum (in CC#N): 390 nm; absorption maximum (in CC(C)=O): 398 nm; absorption maximum (in CCO): 393 nm; absorption maximum (in CCOCC): 400 nm; absorption maximum (in CN1CCCC1=O): 393 nm; absorption maximum (in CN(C)C=O): 393 nm; absorption maximum (in CO): 390 nm; absorption maximum (in CS(C)=O): 378 nm; absorption maximum (in O): 374 nm

With O=CC1=Cc2cocc2C=C(C=O)C1 as the compound, how does the absorption maximum (in ClC(Cl)Cl) read?
Its absorption maximum is 303 nm.

For O=C1NC(c2ccccc2)=C/C1=C\c1ccccc1, which absorption maximum (in C1COCCO1) is on record?
The absorption maximum was 422 nm.

For CCN(CC)c1ccc(/C=N/c2cc3ccccc3cc2/N=C/c2ccc(N(CC)CC)cc2O)c(O)c1, which absorption maximum (in CC#N) is on record?
Its absorption maximum is 403 nm.

What about the absorption maximum (in CN(C)C=O) of the same compound?
The absorption maximum was 416 nm.

What about the absorption maximum (in ClCCl) of the same compound?
Its absorption maximum is 447 nm.

Which absorption maximum (in CC#N) does the source give for CCOC(=O)CC[N+]1=c2cc3c(cc2CCC1)=Cc1c(c2ccc(N(C)C)cc2oc1=O)O3 here?
Its absorption maximum is 593 nm.

And the absorption maximum (in CO)?
Its absorption maximum is 591 nm.

And the absorption maximum (in ClCCl)?
The absorption maximum was 606 nm.

And the absorption maximum (in O)?
The absorption maximum was 587 nm.

For CCC1=C(C2=C(C3=C(CC)S(=O)(=O)c4ccccc43)C(F)(F)C(F)(F)C2(F)F)c2ccccc2S1(=O)=O, which absorption maximum (in C1COCCO1) is on record?
Its absorption maximum is 310 nm.

With CCC1(CC)c2cc(B(c3c(C)cc(C)cc3C)c3c(C)cc(C)cc3C)ccc2-c2c1c1c(c3c2C(CC)(CC)c2cc(N(c4ccccc4)c4ccccc4)ccc2-3)C(CC)(CC)c2cc(B(c3c(C)cc(C)cc3C)c3c(C)cc(C)cc3C)ccc2-1 as the compound, how does the absorption maximum (in C1CCOC1) read?
Its absorption maximum is 362 nm.

And the absorption maximum (in CC#N)?
Its absorption maximum is 359 nm.

What about the absorption maximum (in CC(C)=O) of the same compound?
Its absorption maximum is 360 nm.

What about the absorption maximum (in CCCCCC) of the same compound?
Its absorption maximum is 361 nm.

And the absorption maximum (in CCCO)?
Its absorption maximum is 360 nm.

And the absorption maximum (in CCO)?
Its absorption maximum is 360 nm.

And the absorption maximum (in Cc1ccccc1)?
The absorption maximum was 363 nm.

What about the absorption maximum (in ClC(Cl)Cl) of the same compound?
The absorption maximum was 364 nm.

Which absorption maximum (in CC1CCCCC1) does the source give for C(=C\c1c2ccccc2cc2ccccc12)/c1ccc2ccccc2n1 here?
Its absorption maximum is 390 nm.

And the absorption maximum (in CC#N)?
The absorption maximum was 390 nm.

With CN1/C(=C/C2=C([O-])C(=O)C2=C2C(=O)NC(=O)NC2=O)C(C)(C)c2ccccc21 as the compound, how does the absorption maximum (in CCO) read?
The absorption maximum was 457 nm.

Which absorption maximum (in C1COCCO1) does the source give for CC(C)(C)NS(=O)(=O)c1ccc2c(c1)C(=O)/C(=C1\Sc3ccc(S(=O)(=O)NC(C)(C)C)cc3C1=O)S2 here?
The absorption maximum was 538 nm.

What about the absorption maximum (in CN(C)C=O) of the same compound?
Its absorption maximum is 543 nm.

And the absorption maximum (in CS(C)=O)?
The absorption maximum was 546 nm.

Which absorption maximum (in C1CCOC1) does the source give for COc1cc2c(cc1-c1ccccc1)Cc1c3c(c4c(c1-2)-c1cc(OC)c(-c2ccccc2)cc1C4)C(=O)N(CCC(C)C)C3=O here?
The absorption maximum was 405 nm.

And the absorption maximum (in CC#N)?
The absorption maximum was 406 nm.

And the absorption maximum (in CC(C)=O)?
The absorption maximum was 407 nm.

And the absorption maximum (in CCOC(C)=O)?
Its absorption maximum is 405 nm.

And the absorption maximum (in CS(C)=O)?
Its absorption maximum is 413 nm.

And the absorption maximum (in Cc1ccccc1)?
The absorption maximum was 405 nm.

What about the absorption maximum (in ClC(Cl)Cl) of the same compound?
Its absorption maximum is 414 nm.

What about the absorption maximum (in ClCCl) of the same compound?
Its absorption maximum is 411 nm.

Which absorption maximum (in C1CCOC1) does the source give for COC(=O)CN1C(=O)c2cc3ccc(N(C)C)cc3cc2C1=O here?
The absorption maximum was 373 nm.

And the absorption maximum (in CC#N)?
Its absorption maximum is 380 nm.

And the absorption maximum (in CC(C)=O)?
Its absorption maximum is 375 nm.

And the absorption maximum (in CCO)?
Its absorption maximum is 379 nm.

What about the absorption maximum (in Cc1ccccc1) of the same compound?
The absorption maximum was 373 nm.

What about the absorption maximum (in ClC(Cl)Cl) of the same compound?
Its absorption maximum is 380 nm.
